In patent US20210163471A1, “PROGRANULIN MODULATORS AND METHODS OF USING THE SAME” (ARKUDA THERAPEUTICS, priority 2017, published 2021):
Where two headings read alike, the source gives them in different places.

System: BV-2 (mouse microglia) cells
Test: progranulin secretion from BV-2 cells, mouse progranulin ELISA of conditioned media
Assay type: cell-based
Settings: BV-2 cells, 16 hours incubation, 8-point curves starting at 10 μM
Method: BV-2 cells are split the day before plating into a 96 well plate format at approximately 80%. Cells should be plated the day before and allowed for 1 hour attachment period and for 16 hour incubation. […] Standard ELISA kits to measure PGRN are available from vendors such as Adipogen, R&D, and Biovendor.
Compound potency was determined by measuring progranulin secretion from BV-2 (mouse microglia) cells. BV-2 cells were grown in RPMI with 2 mM L-glutamine supplemented with 10% fetal bovine serum. On the day of the assay, cells were plated in 96-well plates at a density of 30,000 cells/well in RPMI (Roswell Park Memorial Institute media)/L-glutamine supplemented with 2% Fetal clone serum II (plating media) and left to adhere for 1 hour. Following attachment to the plate, media was replaced with treatment (8-point curves in half-log dilutions starting at 10 μM) in plating media and incubated for 16 hours. Secreted progranulin was measured from a 1:10 dilution of the conditioned media using the R&D Systems mouse progranulin ELISA kit (cat #DY2557) and following the manufacturer's instructions.

[1] = Mus musculus, BV-2, 16 h, assay run v1, read-out: PRGN v1 (EC50, progranulin secretion)
[2] = Mus musculus, BV-2, 16 h, assay run v2 (same protocol, different assay), read-out: PRGN v2 (EC50, progranulin secretion)
[3] = Mus musculus, assay run v2 (same protocol, different assay), read-out: PRGN v2 (EC50, progranulin secretion)
[4] = assay run v1, read-out: PRGN v1 (EC50, progranulin secretion)
[5] = assay run v2 (same protocol, different assay), read-out: PRGN v2 (EC50, progranulin secretion)
[6] = Mus musculus, assay run v1, read-out: PRGN v1 (EC50, progranulin secretion)

O=C(N[C@@H]1CN2CCC1CC2)N1CCc2ccccc2[C@@H]1c1ccc(OCc2ccccc2)cc1 [Compound 1091]
EC50 [1]: 0.34 µM

O=S(=O)(C[C@H]1CN2CCC1CC2)N1CCc2ccccc2[C@@H]1c1ccc(F)cc1 [Compound 1137]
EC50 [2]: 4.41 µM

O=C(N[C@@H]1CN2CCC1CC2)N1CCc2ccccc2[C@H]1c1ccc(OC2CC2)cc1 [Compound 1116]
EC50 [1]: 4.47 µM | EC50 [2]: > 10 µM

Cc1nc2cc([C@@H]3c4ccccc4CCN3C(=O)O[C@@H]3CN4CCC3CC4)ccc2s1 [Compound 1133]
EC50 [3]: 9.28 µM

O=S(=O)(C[C@H]1CN2CCC1CC2)N1CCc2ccccc2[C@H]1c1ccccc1 [Compound 1143]
EC50 [2]: > 10 µM

CS(=O)(=O)N1CC([C@@H]2c3ccccc3CCN2C(=O)N[C@@H]2CN3CCC2CC3)C1 [Compound 1124]
EC50 [1]: > 10 µM | EC50 [2]: > 10 µM

COc1ccc([C@H]2c3ccccc3CCN2C(=O)N[C@@H]2CN3CCC2CC3)cc1 [Compound 1073]
EC50 [1]: 4.96 µM

O=C(O[C@@H]1CN2CCC1CC2)N1CCc2ccccc2[C@@H]1c1ccc(-n2cnnc2)cc1 [Compound 1042]
EC50 [3]: > 10 µM

O=C(O[C@@H]1CN2CCC1CC2)N1CCc2ccccc2[C@H]1c1cccc(F)c1 [Compound 1021]
EC50 [4]: > 10 µM | EC50 [5]: 1.03 µM

O=C1CCC([C@H]2c3ccccc3CCN2C(=O)O[C@@H]2CN3CCC2CC3)CN1 (some centres unmarked) [Compound 1026]
EC50 [4]: > 10 µM | EC50 [5]: > 10 µM

O=C(O[C@@H]1CN2CCC1CC2)N1CCc2ccccc2[C@@H]1c1ccc(F)cc1 [Compound 1004, (S)—((S)-quinuclidin-3-yl) 1-(4-fluorophenyl)-3,4-dihydroisoquinoline-2(1H)-carboxylate]
EC50 [6]: 0.36 µM | EC50 [3]: 0.43 µM

O=S(=O)(C[C@@H]1CN2CCC1CC2)N1CCc2ccccc2[C@H]1c1ccccc1 [Compound 1141]
EC50 [2]: 3.36 µM

O=C(N[C@@H]1CN2CCC1CC2)N1CCc2ccccc2[C@@H]1c1cccc(F)c1 [Compound 1109]
EC50 [1]: 1.03 µM | EC50 [2]: 1.44 µM

O=C(O[C@@H]1CN2CCC1CC2)N1CCc2ccccc2[C@@H]1COc1ccc(F)cc1 [Compound 1134]
EC50 [5]: > 10 µM

O=C(N[C@@H]1CN2CCC1CC2)N1CCc2ccccc2[C@@H]1c1ccc(N2CCCC2)cc1 [Compound 1103]
EC50 [1]: > 10 µM

O=C(O[C@@H]1CN2CCC1CC2)N1CCc2ccccc2[C@@H]1c1ccc(OC(F)(F)F)cc1 [Compound 1128]
EC50 [3]: 2.6 µM

CS(=O)(=O)N1CC([C@H]2c3ccccc3CCN2C(=O)N[C@@H]2CN3CCC2CC3)C1 [Compound 1123]
EC50 [1]: > 10 µM | EC50 [2]: > 10 µM

O=C(N[C@@H]1CN2CCC1CC2)N1CCc2ccccc2[C@@H]1c1ccc(O)cc1 [Compound 1093]
EC50 [1]: > 3.16 µM

O=C(N[C@@H]1CN2CCC1CC2)N1CCc2ccccc2[C@@H]1c1cccnc1 [Compound 1085]
EC50 [1]: 1.78 µM

COCCOCCOCCNC(=O)c1ccc([C@H]2c3ccccc3CCN2C(=O)O[C@@H]2CN3CCC2CC3)cc1 [Compound 1146]
EC50 [3]: > 10 µM

O=C(N[C@@H]1CN2CCC1CC2)N1CCc2ccccc2[C@H]1c1ccc(-n2cncn2)cc1 [Compound 1102]
EC50 [1]: > 10 µM

CC1([C@H]2c3ccccc3CCN2C(=O)N[C@@H]2CN3CCC2CC3)COC1 [Compound 1089]
EC50 [1]: > 10 µM

COc1ccc([C@@H]2c3ccccc3CCN2C(=O)O[C@@H]2CN3CCC2CC3)cc1F [Compound 1039]
EC50 [5]: > 10 µM

O=C(C[C@@H]1CN2CCC1CC2)N1CCc2ccccc2[C@@H]1c1ccc(Cl)cc1 [Compound 1049]
EC50 [1]: 0.21 µM

O=C(O[C@@H]1CN2CCC1CC2)N1CCc2ccccc2[C@H]1c1ccc(F)c(F)c1 [Compound 1011]
EC50 [6]: 7.14 µM | EC50 [3]: 8.74 µM

O=C(O[C@@H]1CN2CCC1CC2)N1CCc2ccccc2[C@H]1c1ccc(OC(F)(F)F)cc1 [Compound 1129]
EC50 [3]: 4.35 µM

O=C(C[C@@H]1CN2CCC1CC2)N1CCc2ccccc2[C@@H]1c1ccc(F)c(F)c1 [Compound 1064]
EC50 [1]: 2.71 µM | EC50 [2]: 1.83 µM

O=C1CCCN1c1ccc([C@H]2c3ccccc3CCN2C(=O)O[C@@H]2CN3CCC2CC3)cc1 [Compound 1016]
EC50 [6]: > 10 µM | EC50 [3]: > 10 µM

COc1ccc([C@@H]2c3ccccc3CCN2C(=O)N[C@@H]2CN3CCC2CC3)cn1 [Compound 1084]
EC50 [1]: > 3.16 µM

O=C(O[C@@H]1CN2CCC1CC2)N1CCc2ccccc2[C@H]1c1ccc(C(F)(F)F)cc1 [Compound 1127]
EC50 [3]: > 10 µM

O=C(N[C@@H]1CN2CCC1CC2)N1CCc2ccccc2[C@H]1c1ccn2cncc2c1 [Compound 1098]
EC50 [1]: > 10 µM
